US10858366B2 (priority 2016, dated 2020)

Experiments:
[1] = biological target: truncated Influenza A/victoria/75 PA(1-209) (Influenza A virus (strain A/Victoria/3/1975 H3N2), UniProt P31343); experiment: Endonuclease Inhibition Assay (PA FP Assay); type: binding; settings: fluorescence polarization, fluorescein-labeled probe
Procedure: Endonuclease Inhibition Assay (PA FP Assay)
Compounds were dissolved and serially diluted in 100% DMSO then 0.5 μl was transferred to 384-well plates. 50 nM truncated Influenza A/victoria/75 PA(1-209) was prepared in assay buffer (20 mM Tris, pH=7.5, 10 mM MgCl2, 0.01% Tween 20, 100 mM NaCl and 1 mM DTT) and 20 ul was added to each well of assay plate with compounds, centrifuged for 1 min at 1000 rpm and incubated for 30 min at room temperature. 20 μl of 20 nM fluorescein-labeled probe [5-(4-(3-carboxy-3-oxopropanoyl)-4-(4-chlorobenzyl)piperidine-1-carbonyl)-2-(6-hydroxy-3-oxo-3H-xanthen-9-yl)benzoic acid] in assay buffer was then added, centrifuged for 1 min at 1000 rpm and incubated for 60 min at room temperature.
Fluorescence polarization was measured on Perkin Elmer Envision plate reader with excitation at 480 nm and emission at 535 nm and reported in millipolarization units (mP). IC50 values were determined relative to wells containing 125 uM of a compound known to bind to the active site of PA and uninhibited wells containing 1.25% DMSO.

[2] = biological target: RNP_CAL (PB2, PB1, PA, NP, influenza A Luciferase reporter in 293T cells) (Influenza A virus (strain swl A/California/04/2009 H1N1), UniProt C3W5S0); experiment: cell-based

Work on O=c1cnn2c(c1O)-c1nccn1CC2C(c1ccccc1)c1ccccc1 (centres unmarked) [Example 1, 6-Benzhydryl-11-hydroxy-5H-imidazo[2′,1′:3,4]pyrazino[1,2-b]pyridazin-10(6H)-one] yielded an IC50 [1] of 50 nM and an EC50 [2] of 110 nM.
O=c1cnn2c(c1O)-c1nccn1CC2C(c1cccc(F)c1)c1cccc(F)c1 (centres unmarked) [Example 2, 6-(bis(3-fluorophenyl)methyl)-11-hydroxy-5,6-dihydro-10H-imidazo[2′,1′:3,4]pyrazino[1,2-b]pyridazin-10-one] gave an IC50 [1] of 70 nM and an EC50 [2] of 110 nM.
For O=c1cnn2c(c1O)-c1ncnn1CC2C(c1ccccc1)c1ccccc1 (centres unmarked) [Example 3, 6-benzhydryl-11-hydroxy-5,6-dihydro-10H-[1,2,4]triazolo[5′,1′:3,4]pyrazino[1,2-b]pyridazin-10-one], the IC50 [1] was 400 nM and the EC50 [2] was 1100 nM.
For O=c1ccn2c(c1O)-c1nccn1C[C@@H]2C(c1ccccc1)c1ccccc1 [Example 4, (S)-6-Benzhydryl-11-hydroxy-5H-imidazo[1,2-a]pyrido[2,1-c]pyrazin-10(6H)-one], the IC50 [1] was 10 nM and the EC50 [2] was 160 nM.
O=c1ccn2c(c1O)-c1ncc(Cl)n1C[C@@H]2C(c1ccccc1)c1ccccc1 [Example 5, (S)-6-Benzhydryl-3-chloro-11-hydroxy-5,6-dihydro-10H-imidazo[1,2-a]pyrido[2,1-c]pyrazin-10-one] gave an IC50 [1] of 20 nM and an EC50 [2] of 100 nM.
In the case of O=c1ccn2c(c1O)-c1nccn1CN2C(c1ccccc1)c1ccccc1 [Example 6, 6-benzhydryl-11-hydroxy-5H-imidazo[1,2-d]pyrido[2,1-f][1,2,4]triazin-10(6H)-one], the IC50 [1] is reported as 40 nM and the EC50 [2] is reported as 190 nM.
Molecule O=c1ccn2c(c1O)-c1ncc(Br)n1C[C@@H]2C(c1ccccc1)c1ccccc1 [Example 7, (S)-6-benzhydryl-3-bromo-11-hydroxy-5H-imidazo[1,2-a]pyrido[2,1-c]pyrazin-10(6H)-one] has an IC50 [1] of 9 nM and an EC50 [2] of 170 nM.
For O=c1ccn2c(c1O)-c1ncc(C3CC3)n1C[C@@H]2C(c1ccccc1)c1ccccc1 [Example 8, (S)-6-benzhydryl-3-cyclopropyl-11-hydroxy-5H-imidazo[1,2-a]pyrido[2,1-c]pyrazin-10(6H)-one], the IC50 [1] was 40 nM and the EC50 [2] was 150 nM.
Work on Cc1nc2n(c1C)C[C@H](C(c1ccccc1)c1ccccc1)n1ccc(=O)c(O)c1-2 [Example 14, (S)-6-benzhydryl-11-hydroxy-2,3-dimethyl-5H-imidazo[1,2-a]pyrido[2,1-c]pyrazin-10(6H)-one] yielded an IC50 [1] of 100 nM and an EC50 [2] of 4200 nM.
In the case of O=c1cnn2c(c1O)-c1nccn1C[C@@H]2[C@H](c1ccccc1)c1ccc(F)cc1 [Example 17, (S)-6-((R)-(4-fluorophenyl)(phenyl)methyl)-11-hydroxy-5,6-dihydro-10H-imidazo[2′,1′:3,4]pyrazino[1,2-b]pyridazin-10-one], the IC50 [1] is reported as 20 nM and the EC50 [2] is reported as 10 nM.
Work on O=c1cnn2c(c1O)-c1nccn1C[C@@H]2[C@@H](c1ccccc1)c1ccc(F)cc1 [Example 18, (S)-6-((S)-(4-fluorophenyl)(phenyl)methyl)-11-hydroxy-5,6-dihydro-10H-imidazo[2′,1′:3,4]pyrazino[1,2-b]pyridazin-10-one] yielded an IC50 [1] of 20 nM and an EC50 [2] of 130 nM.
With O=c1cnn2c(c1O)-c1nccn1C[C@@H]2[C@H](c1ccc(F)cc1)c1cncc(F)c1 [Example 19, (S)-6-((R)-(4-fluorophenyl)(5-fluoropyridin-3-yl)methyl)-11-hydroxy-5,6-dihydro-10H-imidazo[2′,1′:3,4]pyrazino[1,2-b]pyridazin-10-one] the IC50 [1] was 40 nM and the EC50 [2] was 260 nM.
For O=c1cnn2c(c1O)-c1nccn1C[C@@H]2[C@H](c1ccc(F)cc1)c1ccc(C(F)(F)F)nc1 [Example 20, (S)-6-((R)-(4-fluorophenyl)(6-(trifluoromethyl)pyridin-3-yl)methyl)-11-hydroxy-5,6-dihydro-10H-imidazo[2′,1′:3,4]pyrazino[1,2-b]pyridazin-10-one], the IC50 [1] was 300 nM and the EC50 [2] was 720 nM.
O=c1cnn2c(c1O)-c1nccn1C[C@@H]2C(c1cccc(F)c1)c1cccc(F)c1 [Example 23, (S)-6-(bis(3-fluorophenyl)methyl)-11-hydroxy-5,6-dihydro-10H-imidazo[2′,1′:3,4]pyrazino[1,2-b]pyridazin-10-one] was tested, and the IC50 [1] was 50 nM and the EC50 [2] was 39 nM.
With O=c1cnn2c(c1O)-c1nccn1C[C@@H]2[C@@H](c1ccc(F)cc1)c1cccc(F)c1 [Example 24, (S)-6-((S)-(3-fluorophenyl)(4-fluorophenyl)methyl)-11-hydroxy-5,6-dihydro-10H-imidazo[2′,1′:3,4]pyrazino[1,2-b]pyridazin-10-one] the IC50 [1] was 9 nM and the EC50 [2] was 36 nM.
Work on O=c1cnn2c(c1O)-c1nccn1C[C@@H]2[C@@H](c1ccc(F)cc1)c1cccc(Br)c1 [Example 30, (S)-6-((S)-(3-bromophenyl)(4-fluorophenyl)methyl)-11-hydroxy-5,6-dihydro-10H-imidazo[2′,1′:3,4]pyrazino[1,2-b]pyridazin-10-one] yielded an IC50 [1] of 10 nM.
For O=c1cnn2c(c1O)-c1nccn1C[C@@H]2[C@@H](c1ccc(F)cc1)c1ccc(Cl)cc1 [Example 33, (S)-6-((S)-(4-chlorophenyl)(4-fluorophenyl)methyl)-11-hydroxy-5,6-dihydro-10H-imidazo[2′,1′:3,4]pyrazino[1,2-b]pyridazin-10-one], the IC50 [1] was 20 nM and the EC50 [2] was 110 nM.
Cc1cccc([C@H](c2ccc(F)cc2)[C@H]2Cn3ccnc3-c3c(O)c(=O)cnn32)c1 [Example 38, (S)-6-((S)-(4-fluorophenyl)(m-tolyl)methyl)-11-hydroxy-5,6-dihydro-10H-imidazo[2′,1′:3,4]pyrazino[1,2-b]pyridazin-10-one] showed an IC50 [1] of 40 nM and an EC50 [2] of 49 nM.
With O=c1ccn2c(c1O)-c1ncc(CO)n1C[C@@H]2C(c1ccccc1)c1ccccc1 [Example 54, (S)-6-benzhydryl-11-hydroxy-3-(hydroxymethyl)-5,6-dihydro-10H-imidazo [1,2-a]pyrido[2,1-c]pyrazin-10-one] the IC50 [1] was 100 nM.
Work on O=c1ccn2c(c1O)-c1nccn1C(C1CC1)N2C(c1ccccc1)c1ccccc1 (centres unmarked) [Example 73, 6-benzhydryl-5-cyclopropyl-11-hydroxy-5,6-dihydro-10H-imidazo[1,2-d]pyrido[2,1-f][1,2,4]triazin-10-one] yielded an EC50 [2] of 170 nM.
Molecule O=c1ccn2c(c1O)-c1nccn1CN2C1c2ccccc2CSc2ccccc21 (centres unmarked) [Example 74, 6-(6,11-dihydrodibenzo[b,e]thiepin-11-yl)-11-hydroxy-5,6-dihydro-10H-imidazo[1,2-d]pyrido[2,1-f][1,2,4]triazin-10-one] has an EC50 [2] of 84 nM.
In the case of O=c1ccn2c(c1O)-c1nccn1C(C1CC1)N2C1c2ccccc2CSc2ccccc21 (centres unmarked) [Example 76, 5-cyclopropyl-6-(6,11-dihydrodibenzo[b,e]thiepin-11-yl)-11-hydroxy-5,6-dihydro-10H-imidazo[1,2-d]pyrido[2,1-f][1,2,4]triazin-10-one], the EC50 [2] is reported as 160 nM.
O=c1ccn2c(c1O)-c1nccn1C1(COC1)N2C1c2ccccc2CSc2ccccc21 (centres unmarked) [Example 80, 6-(6,11-dihydrodibenzo[b,e]thiepin-11-yl)-11-hydroxy-6H,10H-spiro[imidazo[1,2-d]pyrido[2,1-f][1,2,4]triazine-5,3′-oxetan]-10-one] was tested, and the EC50 [2] was 10 nM.
O=c1ccn2c(c1O)-c1ncsc1CN2C(c1ccccc1)c1ccccc1 [Example 81, 5-benzhydryl-10-hydroxy-4,5-dihydro-9H-pyrido[1,2-b]thiazolo[4,5-d]pyridazin-9-one] gave an EC50 [2] of 7000 nM.
O=c1ccn2c(c1O)-c1ncoc1CN2C(c1ccccc1)c1ccccc1 [Example 83, 5-benzhydryl-10-hydroxy-4,5-dihydro-9H-oxazolo[4,5-d]pyrido[1,2-b]pyridazin-9-one] showed an EC50 [2] of 970 nM.
O=c1ccn2c(c1O)-c1ocnc1CN2C(c1ccccc1)c1ccccc1 [Example 84, 5-benzhydryl-10-hydroxy-4,5-dihydro-9H-oxazolo[5,4-d]pyrido[1,2-b]pyridazin-9-one] showed an EC50 [2] of 11000 nM.
For CC(=O)Oc1c2n(ncc1=O)[C@@H](C(c1ccc(F)cc1)c1ccc(F)cc1)Cn1ccnc1-2 [Example 85, (S)-6-(bis(4-fluorophenyl)methyl)-10-oxo-5,6-dihydro-10H-imidazo[2′,1′:3,4]pyrazino[1,2-b]pyridazin-11-yl acetate], the EC50 [2] was 22 nM.
With CC(C)C(=O)Oc1c2n(ncc1=O)[C@@H](C(c1ccc(F)cc1)c1ccc(F)cc1)Cn1ccnc1-2 [Example 86, (S)-6-(bis(4-fluorophenyl)methyl)-10-oxo-5,6-dihydro-10H-imidazo[2′,1′:3,4]pyrazino[1,2-b]pyridazin-11-yl isobutyrate] the EC50 [2] was 21 nM.
With CC(C)CC(=O)Oc1c2n(ncc1=O)[C@@H](C(c1ccc(F)cc1)c1ccc(F)cc1)Cn1ccnc1-2 [Example 87, (S)-6-(bis(4-fluorophenyl)methyl)-10-oxo-5,6-dihydro-10H-imidazo[2′,1′:3,4]pyrazino[1,2-b]pyridazin-11-yl 3-methylbutanoate] the EC50 [2] was 21 nM.
COC(=O)OCOc1c2n(ncc1=O)[C@@H](C(c1ccc(F)cc1)c1ccc(F)cc1)Cn1ccnc1-2 [Example 88, (S)-((6-(bis(4-fluorophenyl)methyl)-10-oxo-5,6-dihydro-10H-imidazo[2′,1′:3,4]pyrazino[1,2-b]pyridazin-11-yl)oxy)methyl methyl carbonate] showed an EC50 [2] of 42 nM.
